Values quoted from earlier work as cited in patent US12252709B2, “Culture media for culturing pluripotent stem cells in suspension” (Accellta Ltd., priority 2016, dated 2025).
Read-outs that look alike come from different tables or passages of the source.

Experiments:
hESCs [1] = conditions: Matrigel matrix, seven days (Sato et al, 2004)
hESCs [2] = conditions: for background differentiation: MATRIGEL matrix

In the case of `O=C1Nc2cc(Br)ccc2/C1=C1/Nc2ccccc2/C1=N\O` [BIO, 6-bromoindirubin-3′-oxime], the “maintenance of hESC properties” value (hESCs [1]) is listed as “maintained hESC properties”.

In the case of “bFGF: basic fibroblast growth factor, medium supplement”, the background differentiation (hESCs [2]; serum replacement, 40 ng/ml bFGF [Xu et al, 2005b]) is listed as 28%.

B1: Noggin: protein factor used with 40 ng/ml bFGF (protein, UniProt Q13253 28-232, looked up)
Noggin: QHYLHIRPAPSDNLPLVDLIEHPDPIFDPKEKDLNETLLRSLLGGHYDPGFMATSPPEDRPGGGGGAAGGAEDLAELDQLLRQRPSGAMPSEIKGLEFSEGLAQGKKQRLSKKLRRKLQMWLWSQTFCPVLYAWNDLGSRFWPRYVKVGSCFSKRSCSVPEGMVCKPSKSVHLTVLRWRCQRRGGQRCGWIPIQYPIISECKCSC
For B1, the background differentiation (hESCs [2]; 40 ng/ml bFGF and 0.5 μg/ml Noggin [Xu et al, 2005]) is listed as 10%.

B2: Flt-3 ligand: protein factor added to bFGF medium (protein, UniProt P49771 27-235, looked up)
Fms-related tyrosine kinase 3 …: TQDCSFQHSPISSDFAVKIRELSDYLLQDYPVTVASNLQDEELCGGLWRLVLAQRWMERLKTVAGSKMQGLLERVNTEIHFVTKCAFQPPPSCLRFVQTNISRLLQETSEQLVALKPWITRQNFSRCLELQCQPDSSTLPPPWSPRPLEATAPTAPQPPLLLLLLLPVGLLLLAAAWCLHWQRTRRRTPRPGEQVPPVPSPQDLLLVEH
In the case of B2, the differentiation (hESCs [2]; as before with 75 ng/ml of Flt-3 ligand added) is listed as 20%.
